Test results: ChEMBL document CHEMBL6071157, “Improved N-phenylpyrrolamide inhibitors of DNA gyrase as antibacterial agents for high-priority bacterial strains” (Eur J Med Chem, 2024)
pIC50: −log10 of the molar value. ≈ marks a conversion by molar mass, not a printed value. Calls of active or inactive are those of the source. No cut-off for these calls is given here.

How the values were obtained:
[1] = biological target: T1, DNA topoisomerase 2-alpha (Homo sapiens, UniProt P11388); assay: Inhibition of human DNA topoisomerase 2-alpha using linear pBR322 as substrate assessed as conversion of NADH to NAD+ by measuring residual activity at 40 uM preincubated for 10 to 15 mins in presence of pyruvate kinase/lactate dehydrogenase mix followed by ATP addition and measured after 30 mins by ATPase assay relative to control; details: time 40-55 min
[2] = system: Staphylococcus aureus; assay: Antibacterial activity against Staphylococcus aureus ATCC 29213 assessed as inhibition of bacterial growth by broth microdilution method; type: functional
[3] = system: Escherichia coli; assay: Antibacterial activity against Escherichia coli ATCC 25922 assessed as inhibition of bacterial growth by broth microdilution method; type: functional
[4] = system: Pseudomonas aeruginosa; assay: Antibacterial activity against Pseudomonas aeruginosa ATCC 27853 assessed as inhibition of bacterial growth by broth microdilution metho; type: functional
[5] = biological target: DNA gyrase (Escherichia coli) (UniProt P0AES6+P0AES4); assay: Inhibition of Escherichia coli DNA gyrase assessed as residual activity at 1 uM by supercoiling plate assay relative to control; type: protein-complex assay
[6] = system: Staphylococcus aureus; assay: Antibacterial activity against methicillin resistant Staphylococcus aureus ATCC 43300 assessed as post antibiotic effect at 8 times of MIC incubated for 1 hrs and measured after 8 hrs; type: functional; details: time 9 hrs
[7] = system: Staphylococcus aureus; assay: Drug resistance, ratio of MIC for methicillin-resistant Staphylococcus aureus ATCC 43300 measured after 8 passages to MIC for methicillin-resistant Staphylococcus aureus during first exposure; type: functional
[8] = system: Staphylococcus aureus; assay: Bactericidal activity against methicillin resistant Staphylococcus aureus ATCC 43300 at 8 times of MIC measured a 6 to 24 hrs by time-kill kinetic assay; type: functional, organism-based; details: time 6-24 hrs
[9] = system: Staphylococcus aureus; assay: Drug resistance, ratio of MIC for methicillin-resistant Staphylococcus aureus ATCC 43300 measured after 10 passages to MIC for methicillin-resistant Staphylococcus aureus during first exposure; type: functional
[10] = biological target: DNA gyrase (Escherichia coli, UniProt P0AES4+P0AES6); assay: Inhibition of Escherichia coli DNA gyrase by supercoiling plate assay; type: protein-complex assay
[11] = biological target: T1, DNA topoisomerase 2-alpha; assay: Inhibition of human DNA topoisomerase 2-alpha using linear pBR322 as substrate assessed as conversion of NADH to NAD+ preincubated for 10 to 15 mins in presence of pyruvate kinase/lactate dehydrogenase mix followed by ATP addition and measured after 30 mins by ATPase assay
[12] = system: Escherichia coli; assay: Inhibition of Escherichia coli DNA topoisomerase-IV assessed as residual activity at 1 uM by relaxation plate assay relative to control
[13] = system: Staphylococcus aureus; assay: Antibacterial against methicillin resistant Staphylococcus aureus ATCC 43300 assessed as inhibition of bacterial growth by broth microdilution method; type: functional; details: time 24 hrs
[14] = system: Enterococcus faecium; assay: Antibacterial activity against vancomycin-resistant Enterococcus faecium ATCC 700221 assessed as inhibition of bacterial growth by broth microdilution method; type: functional
[15] = system: Enterobacter cloacae; assay: Antibacterial activity against Enterobacter cloacae subsp. cloacae ATCC 13047 assessed as inhibition of bacterial growth by broth microdilution method; type: functional
[16] = system: Klebsiella pneumoniae; assay: Antibacterial activity against Klebsiella pneumoniae ATCC 10031 assessed as inhibition of bacterial growth by broth microdilution method; type: functional
[17] = system: Acinetobacter baumannii; assay: Antibacterial activity against Acinetobacter baumannii ATCC 17978 assessed as inhibition of bacterial growth by broth microdilution method; type: functional
[18] = biological target: DNA gyrase (Staphylococcus aureus) (UniProt P0A0K8+P20831); assay: Inhibition of Staphylococcus aureus DNA gyrase assessed as residual activity at 0.1 uM by supercoiling plate assay relative to control; type: protein-complex assay
[19] = system: Escherichia coli; assay: Inhibition of Escherichia coli DNA topoisomerase-IV assessed as residual activity at 10 uM by relaxation plate assay relative to control
[20] = biological target: T1, DNA topoisomerase 2-alpha; assay: Inhibition of human DNA topoisomerase 2-alpha using linear pBR322 as substrate assessed as conversion of NADH to NAD+ by measuring residual activity at 100 uM preincubated for 10 to 15 mins in presence of pyruvate kinase/lactate dehydrogenase mix followed by ATP addition and measured after 30 mins by ATPase assay relative to control; details: time 40-55 min
[21] = biological target: T1, DNA topoisomerase 2-alpha; assay: Inhibition of human DNA topoisomerase 2-alpha using linear pBR322 as substrate assessed as conversion of NADH to NAD+ by measuring residual activity at 10 uM preincubated for 10 to 15 mins in presence of pyruvate kinase/lactate dehydrogenase mix followed by ATP addition and measured after 30 mins by ATPase assay relative to control; details: time 40-55 min
[22] = system: MCF7; assay: Cytotoxicity against human MCF7 cells assessed as cell viability at 50 uM incubated for 72 hrs by CellTiter 96 aqueous one solution reagent based MTS assay relative to control; type: functional; details: read-out: Activity
[23] = system: Staphylococcus aureus; assay: Antibacterial against vancomycin-intermediate Staphylococcus aureus ATCC 700699 assessed as inhibition of bacterial growth by broth dilution method; type: functional
[24] = system: Enterococcus faecalis; assay: Antibacterial activity against Enterococcus faecalis ATCC 29212 assessed as inhibition of bacterial growth by broth microdilution method; type: functional
[25] = Metabolic stability in human liver microsomes assessed as half life at 1 uM preincubated for 10 mins followed by NADPH addition and measured after 5 to 60 mins by LC-MS/MS analysis; type: ADME, Microsome; details: time 15-70 min
[26] = Metabolic stability in human liver microsomes assessed as intrinsic clearance at 1 uM preincubated for 10 mins followed by NADPH addition and measured after 5 to 60 mins by LC-MS/MS analysis; type: ADME, Microsome; details: time 15-70 min, read-out: CLH
[27] = Metabolic stability in mouse liver microsomes assessed as half life at 1 uM preincubated for 10 mins followed by NADPH addition and measured after 5 to 60 mins by LC-MS/MS analysis; type: ADME, Microsome; details: time 15-70 min
[28] = Metabolic stability in mouse liver microsomes assessed as intrinsic clearance at 1 uM preincubated for 10 mins followed by NADPH addition and measured after 5 to 60 mins by LC-MS/MS analysis; type: ADME, Microsome; details: time 15-70 min, read-out: CLH
[29] = Inhibition of Escherichia coli DNA topoisomerase-IV relaxation plate assay
[30] = system: Staphylococcus aureus; assay: Antibacterial activity against methicillin resistant Staphylococcus aureus ATCC 43300 assessed as assessed as bacterial killing incubated for 24 hrs by time-kill kinetics assay; type: functional, organism-based
[31] = system: Staphylococcus aureus; assay: Bactericidal activity against Staphylococcus aureus ATCC 43300 at 8 times MIC measured after 8 hrs by time kill assay; type: functional, organism-based

T1 sequence (P11388 whole entry): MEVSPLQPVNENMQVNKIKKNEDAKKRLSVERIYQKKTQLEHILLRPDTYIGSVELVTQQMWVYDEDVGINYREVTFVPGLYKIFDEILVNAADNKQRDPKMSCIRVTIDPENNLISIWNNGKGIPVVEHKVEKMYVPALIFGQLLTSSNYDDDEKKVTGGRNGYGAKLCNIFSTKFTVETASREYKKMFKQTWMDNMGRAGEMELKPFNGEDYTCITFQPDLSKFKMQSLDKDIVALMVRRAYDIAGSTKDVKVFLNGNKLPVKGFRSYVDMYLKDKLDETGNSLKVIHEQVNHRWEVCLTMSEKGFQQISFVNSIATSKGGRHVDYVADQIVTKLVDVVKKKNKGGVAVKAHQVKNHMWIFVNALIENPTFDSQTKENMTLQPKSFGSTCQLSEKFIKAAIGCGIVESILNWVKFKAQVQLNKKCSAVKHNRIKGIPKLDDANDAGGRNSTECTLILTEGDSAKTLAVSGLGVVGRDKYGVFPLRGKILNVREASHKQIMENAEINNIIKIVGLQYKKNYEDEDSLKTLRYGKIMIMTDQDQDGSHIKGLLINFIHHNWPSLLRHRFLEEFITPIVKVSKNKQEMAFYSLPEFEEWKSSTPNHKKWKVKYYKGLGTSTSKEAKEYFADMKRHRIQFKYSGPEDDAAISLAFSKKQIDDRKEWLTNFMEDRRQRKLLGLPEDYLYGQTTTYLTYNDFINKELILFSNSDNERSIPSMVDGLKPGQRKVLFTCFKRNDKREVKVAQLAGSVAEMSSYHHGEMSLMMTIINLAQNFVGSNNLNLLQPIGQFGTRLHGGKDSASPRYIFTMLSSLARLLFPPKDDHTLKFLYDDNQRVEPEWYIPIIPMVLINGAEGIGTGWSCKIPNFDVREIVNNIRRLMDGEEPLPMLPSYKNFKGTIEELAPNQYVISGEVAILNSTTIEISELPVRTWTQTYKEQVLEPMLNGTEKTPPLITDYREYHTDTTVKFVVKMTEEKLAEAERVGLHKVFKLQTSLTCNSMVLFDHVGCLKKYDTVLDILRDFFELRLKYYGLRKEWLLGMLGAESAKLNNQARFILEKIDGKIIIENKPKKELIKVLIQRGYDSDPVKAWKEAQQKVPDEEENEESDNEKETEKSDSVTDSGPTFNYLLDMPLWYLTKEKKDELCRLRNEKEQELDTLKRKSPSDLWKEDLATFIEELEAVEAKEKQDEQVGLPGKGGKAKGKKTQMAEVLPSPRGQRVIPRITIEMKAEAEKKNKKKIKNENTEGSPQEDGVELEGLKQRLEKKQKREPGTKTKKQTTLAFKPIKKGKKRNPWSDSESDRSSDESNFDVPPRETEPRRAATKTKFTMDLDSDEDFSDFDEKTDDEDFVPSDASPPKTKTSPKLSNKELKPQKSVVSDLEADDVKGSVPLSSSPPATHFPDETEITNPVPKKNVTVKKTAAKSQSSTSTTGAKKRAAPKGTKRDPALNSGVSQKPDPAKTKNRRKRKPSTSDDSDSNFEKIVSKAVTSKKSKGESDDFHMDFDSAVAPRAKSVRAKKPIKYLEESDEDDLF
Sequence of DNA gyrase (Staphylococcus aureus) (P0A0K8 2-644 limits assumed): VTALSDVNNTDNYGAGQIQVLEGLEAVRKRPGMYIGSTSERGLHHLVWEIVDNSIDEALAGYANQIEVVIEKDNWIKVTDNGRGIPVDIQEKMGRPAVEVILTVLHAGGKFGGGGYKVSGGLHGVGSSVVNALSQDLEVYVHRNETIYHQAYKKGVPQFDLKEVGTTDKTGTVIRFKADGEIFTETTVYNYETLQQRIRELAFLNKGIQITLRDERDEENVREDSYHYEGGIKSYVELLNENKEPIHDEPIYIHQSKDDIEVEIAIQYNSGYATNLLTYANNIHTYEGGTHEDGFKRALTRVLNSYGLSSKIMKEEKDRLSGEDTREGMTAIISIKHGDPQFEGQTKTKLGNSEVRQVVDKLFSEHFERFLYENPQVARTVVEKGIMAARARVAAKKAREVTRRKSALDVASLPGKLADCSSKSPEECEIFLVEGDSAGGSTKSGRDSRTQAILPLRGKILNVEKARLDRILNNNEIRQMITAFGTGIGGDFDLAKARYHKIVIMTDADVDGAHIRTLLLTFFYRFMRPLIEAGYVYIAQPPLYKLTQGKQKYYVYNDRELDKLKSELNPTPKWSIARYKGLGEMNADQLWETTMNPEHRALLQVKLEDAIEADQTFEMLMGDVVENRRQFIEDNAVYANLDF
Sequence of DNA gyrase (Staphylococcus aureus) (P20831 whole entry partner): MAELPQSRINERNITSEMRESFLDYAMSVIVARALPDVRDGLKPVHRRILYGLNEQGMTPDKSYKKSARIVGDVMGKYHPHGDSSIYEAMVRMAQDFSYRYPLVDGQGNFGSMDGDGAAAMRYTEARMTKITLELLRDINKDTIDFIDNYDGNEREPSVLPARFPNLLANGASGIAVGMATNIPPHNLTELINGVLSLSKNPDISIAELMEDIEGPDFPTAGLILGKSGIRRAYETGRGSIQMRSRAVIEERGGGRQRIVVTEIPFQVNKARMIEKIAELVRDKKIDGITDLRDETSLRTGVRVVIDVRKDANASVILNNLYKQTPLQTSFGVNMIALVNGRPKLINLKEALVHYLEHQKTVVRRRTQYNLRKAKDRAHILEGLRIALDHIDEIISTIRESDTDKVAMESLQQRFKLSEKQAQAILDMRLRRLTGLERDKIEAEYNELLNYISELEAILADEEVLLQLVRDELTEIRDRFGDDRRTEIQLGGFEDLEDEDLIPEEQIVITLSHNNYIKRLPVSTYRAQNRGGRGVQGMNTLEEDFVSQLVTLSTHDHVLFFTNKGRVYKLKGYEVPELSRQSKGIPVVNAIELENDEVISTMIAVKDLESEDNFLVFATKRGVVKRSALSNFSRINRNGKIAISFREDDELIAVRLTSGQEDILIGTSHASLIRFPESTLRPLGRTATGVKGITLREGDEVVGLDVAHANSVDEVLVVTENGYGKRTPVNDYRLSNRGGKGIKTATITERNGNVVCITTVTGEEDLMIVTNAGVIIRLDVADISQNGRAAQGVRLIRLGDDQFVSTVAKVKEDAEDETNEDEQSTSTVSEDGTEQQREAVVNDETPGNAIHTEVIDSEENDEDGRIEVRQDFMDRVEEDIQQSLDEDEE

Compound | MIC [2] [µg/mL] | MIC [3] [µg/mL] | MIC [4] [µg/mL] | pIC50 [10] | MIC [13] [µg/mL] | MIC [14] [µg/mL] | MIC [15] [µg/mL] | MIC [16] [µg/mL] | MIC [17] [µg/mL] | Activity [19] [%] | Activity [20] [%] | viability at 50 µM [22] [%] | MIC [23] [µg/mL] | MIC [24] [µg/mL] | further results
Cc1nnc(-c2ccc(NC(=O)c3[nH]c(C)c(Cl)c3Cl)c(OC(C)C)c2)o1 | > 64 | > 64 | > 64 | – | – | – | – | – | – | – | – | – | – | – | Activity [1]: 115%; Activity [5]: 95%
O=C(O)c1cn(C2CC2)c2cc(N3CCNCC3)c(F)cc2c1=O [CIPROFLOXACIN] | – | – | – | – | – | – | – | – | – | – | – | – | – | – | PAE [6]: 2 h; Ratio [7]: 8; Activity [8]: Active; Ratio [9]: 16
Cc1[nH]c(C(=O)Nc2ccc(-c3nnn[nH]3)cc2N2CCOCC2)c(Cl)c1Cl | > 64 | > 64 | > 64 | 7.35 | > 64 | > 64 | > 64 | > 64 | > 64 | – | – | – | – | – | pIC50 [11]: 4.41; Activity [12]: 77%
Cc1[nH]c(C(=O)Nc2ccc(-n3nn[nH]c3=O)cc2N2CCC(NC(=O)OC(C)(C)C)CC2)c(Cl)c1Cl | – | – | – | 7.48 | – | – | – | – | – | 63 | 34 | – | – | – | Activity [18]: 65%
Cc1[nH]c(C(=O)Nc2ccc(-c3nnn[nH]3)cc2N2CCCC(CNC(=O)OC(C)(C)C)C2)c(Cl)c1Cl (stereo unspecified) | – | – | – | 6.55 | – | – | – | – | – | – | – | – | – | – | Activity [21]: 95%
Cc1[nH]c(C(=O)Nc2ccc(-c3noc(=O)[nH]3)cc2N2CCOCC2)c(Cl)c1Cl | 4 (≈ 9.13 µM) | > 32 | > 32 | 7.89 | 2 (≈ 4.56 µM) | 0.5 (≈ 1.14 µM) | – | – | – | 76 | – | 101 | – | – | Activity [1]: 119%
Cc1[nH]c(C(=O)Nc2ccc(-c3noc(=O)[nH]3)cc2N2CCC(NC(=O)OC(C)(C)C)CC2)c(Cl)c1Cl | > 64 | > 64 | > 64 | 8.17 | 0.5 (≈ 0.907 µM) | 0.5 (≈ 0.907 µM) | > 64 | > 64 | > 64 | – | 30 | 44 | 0.063 (≈ 0.114 µM) | < 0.031 | Activity [12]: 62%; half-life at 1 µM [25]: 1.27 h
Cc1[nH]c(C(=O)Nc2ccc(-n3nn[nH]c3=O)cc2N2Cc3ccccc3C2)c(Cl)c1Cl | 16 (≈ 34 µM) | > 64 | > 64 | 6.95 | > 64 | 0.5 (≈ 1.06 µM) | > 64 | > 64 | > 64 | 105 | 97 | 89 | > 64 | 0.25 (≈ 0.532 µM) | half-life at 1 µM [25]: 1.33 h; microsomal CLint at 1 µM [26]: 17.3 µL/min/mg; half-life at 1 µM [27]: > 2.42 h; microsomal CLint at 1 µM [28]: < 9.6 µL/min/mg
Cc1[nH]c(C(=O)Nc2ccc(-n3nn[nH]c3=O)cc2N2CCN(c3ccccc3)CC2)c(Cl)c1Cl | > 32 | > 32 | > 32 | 8.11 | > 32 | 0.5 (≈ 0.974 µM) | > 32 | > 32 | > 32 | 104 | – | 58 | 0.5 (≈ 0.974 µM) | 0.5 (≈ 0.974 µM) | pIC50 [11]: 4.47
Cc1[nH]c(C(=O)Nc2ccc(-c3noc(=O)[nH]3)cc2N2CCC(N)CC2)c(Cl)c1Cl.Cl | 64 | > 64 | > 64 | 9.60 | 32 | 32 | > 64 | 64 | > 64 | – | – | – | 16 | 32 | pIC50 [29]: 6.73; pIC50 [11]: 4.58
Cc1[nH]c(C(=O)Nc2ccc(-c3noc(=O)[nH]3)cc2N2CCN(C(=O)OC(C)(C)C)CC2)c(Cl)c1Cl | > 64 | > 64 | > 64 | 7.86 | > 64 | 0.25 (≈ 0.465 µM) | > 64 | > 64 | > 64 | – | 95 | 78 | < 0.031 | < 0.031 | Activity [12]: 71%; microsomal CLint at 1 µM [26]: 18.2 µL/min/mg; half-life at 1 µM [27]: > 2.42 h; microsomal CLint at 1 µM [28]: < 9.6 µL/min/mg
Cc1[nH]c(C(=O)Nc2ccc(-c3noc(=O)[nH]3)cc2NC2CCN(C(=O)OC(C)(C)C)CC2)c(Cl)c1Cl | 2 (≈ 3.63 µM) | > 64 | > 64 | 8.16 | 0.5 (≈ 0.907 µM) | 0.063 (≈ 0.114 µM) | > 64 | > 64 | > 64 | – | 98 | 64 | < 0.031 | < 0.031 | pIC50 [29]: 5.77; Activity [30]: Dose-Dependent Effect; PAE [6]: 2 h; Activity [31]: Active; Ratio [7]: 4; Ratio [9]: 128
